# Laboratory results: PubChem BioAssay AID1963973 (Molecular Pharmacology Branch, DTP, NCI, 2024)
# “And” between values parts separate entries of the source, which are not always exact repeats. Equal entries are not always repeated.
# Test system: 883617-216-R-J1-PDC tumor spheroids, viability
# Experiment: Anticancer human tumor 883617-216-R-J1-PDC patient-derived bladder carcinoma cell line growth inhibition [PI3K]
# Details: spheroids with HUVEC and MSC; for viability, T/C: stronger effect = lower value
# Summary of the method: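 Stroma-containing spheroids: tumor line, pooled-donor HUVEC, hMSC. Treatments: targeted agents with PI3K inhibitors. Dosing: clinically relevant, half-log spacing, 10 microM ceiling without known Cmax. Read-out: cell viability.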
# 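Note: spheroids exposed to agents for 7 days before the viability read.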
structure (smiles),measurement,setting,value
CNC(=O)c1ccc(N2C(=S)N(c3ccc(C#N)c(C(F)(F)F)c3)C(=O)C2(C)C)cc1F + COc1c(OCCCN2CCOCC2)ccc2c3n(c(=NC(=O)c4cnc(N)nc4)nc12)CCN3,IC50,"curve of first compound, second compound 0.00316 µM",> 10 µM
same,IC50,"curve of first compound, second compound 0.01 µM",> 10 µM
same,IC50,"curve of first compound, second compound 0.0316 µM",< 0.0316 µM
same,IC50,"curve of first compound, second compound 0.1 µM",< 0.0316 µM
same,IC50,"curve of first compound, second compound 0.316 µM",< 0.0316 µM
same,IC50,"curve of first compound, second compound 1 µM",< 0.0316 µM
same,"viability, T/C","second compound 0.00316 µM, first compound 0.0316 µM",72.6%
same,"viability, T/C","second compound 0.00316 µM, first compound 0.1 µM",79.7%
same,"viability, T/C","second compound 0.00316 µM, first compound 0.316 µM",85.4%
same,"viability, T/C","second compound 0.00316 µM, first compound 1 µM",87.3%
same,"viability, T/C","second compound 0.00316 µM, first compound 3.16 µM",98.2%
same,"viability, T/C","second compound 0.00316 µM, first compound 10 µM",71.9%
same,"viability, T/C","second compound 0.01 µM, first compound 0.0316 µM",61.9%
same,"viability, T/C","second compound 0.01 µM, first compound 0.1 µM",68.4%
same,"viability, T/C","second compound 0.01 µM, first compound 0.316 µM",64.3%
same,"viability, T/C","second compound 0.01 µM, first compound 1 µM",63.4%
same,"viability, T/C","second compound 0.01 µM, first compound 3.16 µM",73.6%
same,"viability, T/C","second compound 0.01 µM, first compound 10 µM",65.6%
same,"viability, T/C","second compound 0.0316 µM, first compound 0.0316 µM",29.5%
same,"viability, T/C","second compound 0.0316 µM, first compound 0.1 µM",39%
same,"viability, T/C","second compound 0.0316 µM, first compound 0.316 µM",47.5%
same,"viability, T/C","second compound 0.0316 µM, first compound 1 µM",37.7%
same,"viability, T/C","second compound 0.0316 µM, first compound 3.16 µM",35.9%
same,"viability, T/C","second compound 0.0316 µM, first compound 10 µM",29%
same,"viability, T/C","second compound 0.1 µM, first compound 0.0316 µM",16.3%
same,"viability, T/C","second compound 0.1 µM, first compound 0.1 µM",15.1%
same,"viability, T/C","second compound 0.1 µM, first compound 0.316 µM",19%
same,"viability, T/C","second compound 0.1 µM, first compound 1 µM",17.3%
same,"viability, T/C","second compound 0.1 µM, first compound 3.16 µM",16.9%
same,"viability, T/C","second compound 0.1 µM, first compound 10 µM",11.9%
same,"viability, T/C","second compound 0.316 µM, first compound 0.0316 µM",10.4%
same,"viability, T/C","second compound 0.316 µM, first compound 0.1 µM",5.99%
same,"viability, T/C","second compound 0.316 µM, first compound 0.316 µM",4.55%
same,"viability, T/C","second compound 0.316 µM, first compound 1 µM",5.36%
same,"viability, T/C","second compound 0.316 µM, first compound 3.16 µM",5.23%
same,"viability, T/C","second compound 0.316 µM, first compound 10 µM",4.37%
same,"viability, T/C","second compound 1 µM, first compound 0.0316 µM",3.25%
same,"viability, T/C","second compound 1 µM, first compound 0.1 µM",3.07%
same,"viability, T/C","second compound 1 µM, first compound 0.316 µM",2.92%
same,"viability, T/C","second compound 1 µM, first compound 1 µM",3.17%
same,"viability, T/C","second compound 1 µM, first compound 3.16 µM",4.14%
same,"viability, T/C","second compound 1 µM, first compound 10 µM",3.08%
C=CC(=O)N1CCN(c2nc(=O)n(-c3c(C)ccnc3C(C)C)c3nc(-c4c(O)cccc4F)c(F)cc23)C(C)C1 (configuration not stated),"viability, T/C",compound 0.0316 µM,61.8% [middle of 4 runs]
same,"viability, T/C",compound 0.1 µM,48% [middle of 4 runs]
same,"viability, T/C",compound 0.316 µM,51.2% [middle of 4 runs]
same,"viability, T/C",compound 1 µM,58.9% [middle of 4 runs]
same,"viability, T/C",compound 3.16 µM,74.7% [middle of 4 runs]
same,"viability, T/C",compound 10 µM,66.4% [middle of 4 runs]
CC1(C)CCC(CN2CCN(c3ccc(C(=O)NS(=O)(=O)c4ccc(NCC5CCOCC5)c([N+](=O)[O-])c4)c(Oc4cnc5[nH]ccc5c4)c3)CC2)=C(c2ccc(Cl)cc2)C1,"viability, T/C",compound 0.0316 µM,105% [middle of 4 runs]
same,"viability, T/C",compound 1 µM,94.3% [middle of 4 runs]
same,"viability, T/C",compound 3.16 µM,92.8% [middle of 4 runs]
same,IC50,curve of compound,> 10 µM and 5.36 µM and 5.66 µM
